Broadly, the IC50 is the point on the concentration scale where inhibition reaches its midpoint.

Data set [1] concerns COLO205 colon adenocarcinoma cells (B-Raf V600E). The data set can be described thus: COLO205 cell growth inhibition (ATPlite). The class given is cell-based. To be noted: Homo sapiens, COLO 205, 72 h; COLO205, 3 days incubation. The method, boiled down:
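Cells plated overnight, then exposed 3 days at 37° C to 8-point 1:3 compound dilutions topping at 10 μM final. Viability read as ATPlite luminescence, proportional to cell number; IC50 from luminescence versus concentration.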
On the technique in general: Cellular ATP, detected with luciferase, serves as a proxy for viable cell number.

The nature of data set [2]: Relative solubility by turbidity in aqueous buffers of varying pH. The class given is physicochemical. The following applies: for turbidity threshold (L, M, H) 7.4: HEPES pH 7.4; for turbidity threshold (L, M, H) 4.5: SIF pH 4.5; for turbidity threshold (L, M, H) 6.8: SIF pH 6.8; for turbidity threshold (L, M, H) 1.4: buffer pH 1.4 (SGF). The method, boiled down:
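Turbidity endpoint: concentration where optical density at 490, 535 and 650 nm exceeds 0.01, three-wavelength average used. Buffers at pH 1.5, 4.5, 6.8 and 7.4; DMSO serial dilutions of 25 mM stock spiked 1 μL into 99 μL buffer. Low <31.3, moderate 31.3–250, high >250 μM.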

The target in the next data set is CYP2C9 (Homo sapiens, UniProt P11712). The data set can be described thus: CYP2C9 inhibition (fluorescent substrate). It counts as in vitro ADME. The following applies: CYP2C9, MFC substrate; read-out: Cyp IC50 2C9. The method, boiled down: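 IC50 values come from plotting product fluorescence against compound concentration; inhibition lowers formation of the fluorescent metabolite. Ten-point twofold dilutions in co-factor mix were held 10 minutes at 37 °C before the enzyme reaction, also run at 37 °C.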
Sequence of CYP2C9 (P11712 whole entry): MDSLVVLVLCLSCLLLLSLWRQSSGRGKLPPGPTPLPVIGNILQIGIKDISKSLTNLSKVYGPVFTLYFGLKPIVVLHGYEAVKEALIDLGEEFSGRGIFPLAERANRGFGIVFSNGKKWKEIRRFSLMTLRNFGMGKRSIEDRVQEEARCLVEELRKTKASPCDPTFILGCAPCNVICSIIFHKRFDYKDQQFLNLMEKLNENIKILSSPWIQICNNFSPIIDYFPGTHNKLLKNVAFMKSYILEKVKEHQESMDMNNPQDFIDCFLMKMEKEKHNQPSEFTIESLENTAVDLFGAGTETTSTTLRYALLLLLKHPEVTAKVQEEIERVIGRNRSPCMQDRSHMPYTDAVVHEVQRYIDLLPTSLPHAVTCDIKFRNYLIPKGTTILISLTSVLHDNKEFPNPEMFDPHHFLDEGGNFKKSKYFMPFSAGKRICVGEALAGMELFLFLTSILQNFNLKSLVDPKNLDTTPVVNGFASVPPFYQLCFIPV

With `CCCS(=O)(=O)Nc1ccc(F)c(C(=O)c2c[nH]c3ncc(-c4cnn(Cc5ccccc5)c4)cc23)c1F` [P-2190, Propane-1-sulfonic acid {3-[5-(1-benzyl-1H-pyrazol-4-yl)-1H-pyrrolo[2,3-b]pyridine-3-carbonyl]-2,4-difluoro-phenyl}-amide], the IC50 in data set [1] is under 1 µM. Further, in data set [2], the “turbidity threshold (L, M, H) 7.4” value was “L (low solubility if the threshold concentration is <31.3 04)”; the “turbidity threshold (L, M, H) 4.5” value is recorded as “L (low solubility if the threshold concentration is <31.3 04)”; the “turbidity threshold (L, M, H) 6.8” value is “L (low solubility if the threshold concentration is <31.3 04)”; the “turbidity threshold (L, M, H) 1.4” value is “L (low solubility if the threshold concentration is <31.3 04)”. Moreover, the half-inhibitory concentration (IC50) at CYP2C9 is under 5 µM.
Turning to `CCCS(=O)(=O)Nc1ccc(F)c(C(=O)c2c[nH]c3ncc(-c4ccc(C#CCN(CC)CC)nc4)cc23)c1F` [P-2222, Propane-1-sulfonic acid (3-{5-[6-(3-diethylamino-prop-1-ynyl)-pyridin-3-yl]-1H-pyrrolo[2,3-b]pyridine-3-carbonyl}-2,4-difluoro-phenyl)-amide], in data set [1], the IC50 is under 0.1 µM. In addition, in data set [2], the “turbidity threshold (L, M, H) 7.4” value was “L (low solubility if the threshold concentration is <31.3 04)”; the “turbidity threshold (L, M, H) 4.5” value is “L (low solubility if the threshold concentration is <31.3 04)”; the “turbidity threshold (L, M, H) 6.8” value is given as “L (low solubility if the threshold concentration is <31.3 04)”; the “turbidity threshold (L, M, H) 1.4” value was “L (low solubility if the threshold concentration is <31.3 04)”. Besides, at CYP2C9, the IC50 was in the range of 5 to 10 µM.
Consider `Cc1cnc2[nH]cc(C(=O)c3c(F)ccc(NS(=O)(=O)c4cc(F)ccc4F)c3F)c2c1` [P-2015, N-[2,4-Difluoro-3-(5-methyl-1H-pyrrolo[2,3-b]pyridine-3-carbonyl)-phenyl]-2,5-difluoro-benzenesulfonamide], for which the IC50 in data set [1] was under 1 µM. Moreover, in data set [2], the “turbidity threshold (L, M, H) 7.4” value is reported as “M (moderate solubility if the threshold concentration is 31.3 μM to 250 μM)”; the “turbidity threshold (L, M, H) 4.5” value is reported as “L (low solubility if the threshold concentration is <31.3 04)”; the “turbidity threshold (L, M, H) 6.8” value is “M (moderate solubility if the threshold concentration is 31.3 μM to 250 μM)”; the “turbidity threshold (L, M, H) 1.4” value is “M (moderate solubility if the threshold concentration is 31.3 μM to 250 μM)”. Besides, the IC50 at CYP2C9 is over 10 µM.
Molecule `COc1ccnc2[nH]cc(C(=O)c3c(F)ccc(NS(=O)(=O)c4ccccc4F)c3F)c12` [P-2021, N-[2,4-Difluoro-3-(4-methoxy-1H-pyrrolo[2,3-b]pyridine-3-carbonyl)-phenyl]-2-fluoro-benzenesulfonamide] had an IC50 in data set [1] of under 5 µM. Further, in data set [2], the “turbidity threshold (L, M, H) 7.4” value is listed as “M (moderate solubility if the threshold concentration is 31.3 μM to 250 μM)”; the “turbidity threshold (L, M, H) 4.5” value is recorded as “M (moderate solubility if the threshold concentration is 31.3 μM to 250 μM)”; the “turbidity threshold (L, M, H) 6.8” value is reported as “M (moderate solubility if the threshold concentration is 31.3 μM to 250 μM)”; the “turbidity threshold (L, M, H) 1.4” value was “H (high solubility if the threshold concentration is >250 μM)”. Also, on CYP2C9, the IC50 was over 10 µM.
`CCCS(=O)(=O)Nc1ccc(F)c(C(=O)c2c[nH]c3ncc(-c4ccc(OCCCN(C)C)nc4)cc23)c1F` [P-2178, Propane-1-sulfonic acid (3-{5-[6-(3-dimethylamino-propoxy)-pyridin-3-yl]-1H-pyrrolo[2,3-b]pyridine-3-carbonyl}-2,4-difluoro-phenyl)-amide] showed a half-inhibitory concentration (IC50) in data set [1] of under 0.1 µM. Besides, in data set [2], the “turbidity threshold (L, M, H) 7.4” value is reported as “L (low solubility if the threshold concentration is <31.3 04)”; the “turbidity threshold (L, M, H) 4.5” value is reported as “M (moderate solubility if the threshold concentration is 31.3 μM to 250 μM)”; the “turbidity threshold (L, M, H) 6.8” value is recorded as “L (low solubility if the threshold concentration is <31.3 04)”; the “turbidity threshold (L, M, H) 1.4” value is “H (high solubility if the threshold concentration is >250 μM)”. Moreover, at CYP2C9, the IC50 fell in the range of 5 to 10 µM.
The molecule `N#Cc1cnc2[nH]cc(C(=O)c3cccc(NS(=O)(=O)c4cccc(F)c4)c3F)c2c1` [P-2053, N-[3-(5-Cyano-1H-pyrrolo[2,3-b]pyridine-3-carbonyl)-2-fluoro-phenyl]-3-fluoro-benzenesulfonamide] displayed an IC50 in data set [1] of under 1 µM. In addition, in data set [2], the “turbidity threshold (L, M, H) 7.4” value is “M (moderate solubility if the threshold concentration is 31.3 μM to 250 μM)”; the “turbidity threshold (L, M, H) 4.5” value is given as “L (low solubility if the threshold concentration is <31.3 04)”; the “turbidity threshold (L, M, H) 6.8” value is given as “M (moderate solubility if the threshold concentration is 31.3 μM to 250 μM)”; the “turbidity threshold (L, M, H) 1.4” value was “L (low solubility if the threshold concentration is <31.3 04)”. In addition, the IC50 on CYP2C9 was in the range of 5 to 10 µM.
In data set [1], `CCCS(=O)(=O)Nc1ccc(F)c(C(=O)c2c[nH]c3ncc(-c4cnn(CCN5CCOCC5)c4)cc23)c1F` [P-2177, Propane-1-sulfonic acid (2,4-difluoro-3-{5-[1-(2-morpholin-4-yl-ethyl)-1H-pyrazol-4-yl]-1H-pyrrolo[2,3-b]pyridine-3-carbonyl}-phenyl)-amide] returned an IC50 of under 0.1 µM. Also, in data set [2], the “turbidity threshold (L, M, H) 7.4” value is “L (low solubility if the threshold concentration is <31.3 04)”; the “turbidity threshold (L, M, H) 4.5” value is “M (moderate solubility if the threshold concentration is 31.3 μM to 250 μM)”; the “turbidity threshold (L, M, H) 6.8” value was “L (low solubility if the threshold concentration is <31.3 04)”; the “turbidity threshold (L, M, H) 1.4” value is on record as “H (high solubility if the threshold concentration is >250 μM)”. The IC50 on CYP2C9 was under 5 µM.

(Values after patent US8198273B2, “Compounds and methods for kinase modulation, and indications therefor” (Plexxikon Inc., priority 2009, dated 2012).)
